In ChEMBL document CHEMBL6153090:
Active and inactive are the calls of the source. No cut-off for these calls is given here.

What was measured:
[1] = target: 5-hydroxytryptamine receptor 2B (Homo sapiens, UniProt P41595); assay: Displacement of [3H]-LSD from human 5-HT2B receptor at 10 uM by cell-based radioligand binding assay
[2] = target: Sigma intracellular receptor 2 (Homo sapiens, UniProt Q5BJF2); assay: Displacement of [3H]-pentazocine from human Sigma 2 receptor at 10 uM by cell-based radioligand binding assay
Histamine H1 receptor = Histamine H1 receptor (Homo sapiens, UniProt P35367); assay: Binding affinity to H1 receptor (unknown origin) assessed as inhibition constant
[3] = target: Sigma non-opioid intracellular receptor 1 (Homo sapiens, UniProt Q99720); assay: Displacement of [3H]-pentazocine from human Sigma 1 receptor at 10 uM by cell-based radioligand binding assay
D(2) dopamine receptor = D(2) dopamine receptor (Homo sapiens, UniProt P14416); assay: Displacement of [3H]-N-Methylspiperone from human D2 receptor at 10 uM by cell-based radioligand binding assay
[4] = Activation of GIRK channel (unknown origin) assessed as increase in fluorescence analysis; parameters: species or system Homo sapiens
Cannabinoid receptor 1 [5] = target: T1, Cannabinoid receptor 1 (Homo sapiens, UniProt P21554); assay: Agonist activity at CB1 receptor in MDA-MB-231 cells at 100 to 300 uM by FLIPR assay; format: functional, cell-based; settings: filed as agonist, dose 100-300 µM
Translocator protein = Translocator protein (Homo sapiens, UniProt P30536); assay: Displacement of [3H]-PK11195 from human PBR receptor at 10 uM by cell-based radioligand binding assay
Cannabinoid receptor 1 [6] = target: T1, Cannabinoid receptor 1; assay: Agonist activity at CB1 receptor in human MDA-MB-231 cells by FLIPR assay; format: functional, cell-based
[7] = target: Kappa-type opioid receptor (Homo sapiens, UniProt P41145); assay: Displacement of [3H]-U69593 human KOR receptor at 10 uM by cell-based radioligand binding assay
D(3) dopamine receptor = D(3) dopamine receptor (Homo sapiens, UniProt P35462); assay: Displacement of [3H]-N-Methylspiperone from human D3 receptor at 10 uM by cell-based radioligand binding assay
D(4) dopamine receptor = target: T2, D(4) dopamine receptor (Homo sapiens, UniProt P21917); assay: Displacement of [3H]-N-methylspiperone from human D4 receptor at 10 uM by cell-based radioligand binding assay
T2 sequence (P21917 whole entry): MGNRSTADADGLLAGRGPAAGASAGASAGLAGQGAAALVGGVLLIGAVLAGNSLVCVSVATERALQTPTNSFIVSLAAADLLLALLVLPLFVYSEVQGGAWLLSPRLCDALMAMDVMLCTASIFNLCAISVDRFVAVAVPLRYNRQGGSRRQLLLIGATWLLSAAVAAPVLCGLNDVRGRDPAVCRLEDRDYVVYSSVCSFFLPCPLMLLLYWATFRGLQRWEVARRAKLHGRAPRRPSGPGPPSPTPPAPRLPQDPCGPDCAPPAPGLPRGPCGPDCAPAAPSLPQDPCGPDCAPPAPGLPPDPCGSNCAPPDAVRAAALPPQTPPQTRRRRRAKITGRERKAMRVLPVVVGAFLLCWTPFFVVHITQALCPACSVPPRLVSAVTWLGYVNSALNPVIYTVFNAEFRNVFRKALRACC

[8] = target: Sodium-dependent noradrenaline transporter (Homo sapiens, UniProt P23975); assay: Binding affinity to NET receptor (unknown origin) assessed as inhibition constant
Cannabinoid receptor 1 [9] = target: T1, Cannabinoid receptor 1; assay: Agonist activity at CB1 receptor in MDA-MB-231 cells at 300 uM by FLIPR assay; format: functional, cell-based

Chain of 5-hydroxytryptamine receptor 2B (P41595 whole entry): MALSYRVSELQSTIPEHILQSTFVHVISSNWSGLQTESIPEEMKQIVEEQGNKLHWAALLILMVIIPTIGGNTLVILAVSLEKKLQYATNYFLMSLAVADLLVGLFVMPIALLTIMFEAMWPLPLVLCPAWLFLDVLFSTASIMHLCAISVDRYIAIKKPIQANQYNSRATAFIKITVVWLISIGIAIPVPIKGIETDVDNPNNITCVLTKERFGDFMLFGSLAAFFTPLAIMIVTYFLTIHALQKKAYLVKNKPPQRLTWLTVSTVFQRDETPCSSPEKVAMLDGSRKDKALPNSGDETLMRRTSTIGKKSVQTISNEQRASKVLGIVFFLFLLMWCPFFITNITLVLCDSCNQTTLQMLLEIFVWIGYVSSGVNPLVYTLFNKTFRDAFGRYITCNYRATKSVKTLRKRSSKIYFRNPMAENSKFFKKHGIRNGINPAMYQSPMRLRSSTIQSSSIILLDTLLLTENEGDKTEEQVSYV
Chain of Sigma intracellular receptor 2 (Q5BJF2 whole entry): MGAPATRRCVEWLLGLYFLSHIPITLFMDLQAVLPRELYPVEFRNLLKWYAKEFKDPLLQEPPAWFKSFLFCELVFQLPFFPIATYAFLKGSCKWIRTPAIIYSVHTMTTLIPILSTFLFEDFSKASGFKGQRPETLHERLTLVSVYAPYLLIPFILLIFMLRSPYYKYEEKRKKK
Chain of D(2) dopamine receptor (P14416 whole entry): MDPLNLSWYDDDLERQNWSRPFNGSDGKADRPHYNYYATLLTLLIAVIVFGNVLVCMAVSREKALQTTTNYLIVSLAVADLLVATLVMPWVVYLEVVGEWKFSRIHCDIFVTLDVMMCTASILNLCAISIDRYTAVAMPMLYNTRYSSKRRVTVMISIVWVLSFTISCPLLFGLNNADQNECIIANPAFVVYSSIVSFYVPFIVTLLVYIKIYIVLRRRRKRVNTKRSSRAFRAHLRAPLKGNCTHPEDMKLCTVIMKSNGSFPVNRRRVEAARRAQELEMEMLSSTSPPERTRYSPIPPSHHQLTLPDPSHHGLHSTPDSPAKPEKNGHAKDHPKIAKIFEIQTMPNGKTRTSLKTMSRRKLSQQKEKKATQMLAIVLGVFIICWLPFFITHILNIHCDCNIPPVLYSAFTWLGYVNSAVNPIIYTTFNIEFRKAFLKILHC
T1 sequence (P21554 whole entry): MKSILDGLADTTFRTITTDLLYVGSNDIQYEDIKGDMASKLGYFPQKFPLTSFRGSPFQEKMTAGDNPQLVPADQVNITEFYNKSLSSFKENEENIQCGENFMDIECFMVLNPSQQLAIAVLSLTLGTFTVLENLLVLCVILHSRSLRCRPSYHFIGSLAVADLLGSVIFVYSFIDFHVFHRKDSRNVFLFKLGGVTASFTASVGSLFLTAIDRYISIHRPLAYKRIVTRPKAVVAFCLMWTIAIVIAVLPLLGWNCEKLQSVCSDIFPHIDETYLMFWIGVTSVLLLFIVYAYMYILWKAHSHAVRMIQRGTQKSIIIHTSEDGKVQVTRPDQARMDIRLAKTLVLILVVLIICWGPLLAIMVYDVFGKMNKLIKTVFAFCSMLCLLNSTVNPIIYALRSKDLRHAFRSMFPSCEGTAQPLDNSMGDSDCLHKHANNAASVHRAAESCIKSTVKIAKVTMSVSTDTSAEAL
Chain of Sigma non-opioid intracellular receptor 1 (Q99720 whole entry): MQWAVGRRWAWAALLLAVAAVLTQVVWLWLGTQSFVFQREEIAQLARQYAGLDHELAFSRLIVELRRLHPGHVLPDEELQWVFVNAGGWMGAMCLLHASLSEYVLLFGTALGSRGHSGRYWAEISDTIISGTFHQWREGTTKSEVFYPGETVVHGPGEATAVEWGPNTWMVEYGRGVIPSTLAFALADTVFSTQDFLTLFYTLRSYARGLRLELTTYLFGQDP
Chain of Translocator protein (P30536 whole entry): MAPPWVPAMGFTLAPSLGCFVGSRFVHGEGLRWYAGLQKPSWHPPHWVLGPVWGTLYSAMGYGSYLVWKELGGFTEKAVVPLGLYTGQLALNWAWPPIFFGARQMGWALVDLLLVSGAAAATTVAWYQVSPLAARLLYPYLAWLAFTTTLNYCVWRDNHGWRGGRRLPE
Chain of Histamine H1 receptor (P35367 whole entry): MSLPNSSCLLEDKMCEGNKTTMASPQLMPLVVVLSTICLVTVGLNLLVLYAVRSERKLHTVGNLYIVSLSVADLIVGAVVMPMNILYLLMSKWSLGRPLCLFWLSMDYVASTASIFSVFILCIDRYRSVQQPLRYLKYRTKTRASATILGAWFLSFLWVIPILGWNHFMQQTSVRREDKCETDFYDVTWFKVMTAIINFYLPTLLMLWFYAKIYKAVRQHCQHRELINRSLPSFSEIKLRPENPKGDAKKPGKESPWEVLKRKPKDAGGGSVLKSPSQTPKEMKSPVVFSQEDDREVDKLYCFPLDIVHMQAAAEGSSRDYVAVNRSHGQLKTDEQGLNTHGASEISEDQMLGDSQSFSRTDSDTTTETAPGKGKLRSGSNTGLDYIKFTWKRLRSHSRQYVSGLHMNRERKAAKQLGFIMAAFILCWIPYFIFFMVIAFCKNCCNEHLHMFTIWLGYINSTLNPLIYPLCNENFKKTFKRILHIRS
Chain of Sodium-dependent noradrenaline transporter (P23975 whole entry): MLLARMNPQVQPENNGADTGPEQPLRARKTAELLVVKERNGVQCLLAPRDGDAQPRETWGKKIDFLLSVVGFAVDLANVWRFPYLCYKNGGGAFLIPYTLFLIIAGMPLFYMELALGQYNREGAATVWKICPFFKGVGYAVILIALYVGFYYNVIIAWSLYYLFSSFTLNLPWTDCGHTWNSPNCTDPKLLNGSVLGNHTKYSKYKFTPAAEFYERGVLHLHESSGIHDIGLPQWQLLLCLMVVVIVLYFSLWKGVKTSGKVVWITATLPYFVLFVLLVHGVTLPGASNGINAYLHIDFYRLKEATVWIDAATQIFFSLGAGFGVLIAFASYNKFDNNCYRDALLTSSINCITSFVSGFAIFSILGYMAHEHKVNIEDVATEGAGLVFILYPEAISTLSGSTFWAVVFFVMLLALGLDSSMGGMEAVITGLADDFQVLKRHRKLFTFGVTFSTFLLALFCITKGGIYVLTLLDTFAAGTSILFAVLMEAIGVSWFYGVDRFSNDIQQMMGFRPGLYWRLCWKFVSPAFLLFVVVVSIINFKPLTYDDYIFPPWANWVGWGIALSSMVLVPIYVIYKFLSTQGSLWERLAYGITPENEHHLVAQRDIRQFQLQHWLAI
Chain of D(3) dopamine receptor (P35462 whole entry): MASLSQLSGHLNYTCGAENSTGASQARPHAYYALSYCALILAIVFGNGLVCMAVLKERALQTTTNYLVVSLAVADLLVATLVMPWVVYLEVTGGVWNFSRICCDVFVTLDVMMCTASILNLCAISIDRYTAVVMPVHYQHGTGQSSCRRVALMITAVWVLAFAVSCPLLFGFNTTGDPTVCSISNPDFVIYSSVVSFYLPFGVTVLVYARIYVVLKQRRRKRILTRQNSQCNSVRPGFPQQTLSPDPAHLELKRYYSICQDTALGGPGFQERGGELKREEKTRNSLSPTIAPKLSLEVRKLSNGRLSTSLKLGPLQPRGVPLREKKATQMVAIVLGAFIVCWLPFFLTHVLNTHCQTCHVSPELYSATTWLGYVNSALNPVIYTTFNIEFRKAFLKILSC
Chain of Kappa-type opioid receptor (P41145 whole entry): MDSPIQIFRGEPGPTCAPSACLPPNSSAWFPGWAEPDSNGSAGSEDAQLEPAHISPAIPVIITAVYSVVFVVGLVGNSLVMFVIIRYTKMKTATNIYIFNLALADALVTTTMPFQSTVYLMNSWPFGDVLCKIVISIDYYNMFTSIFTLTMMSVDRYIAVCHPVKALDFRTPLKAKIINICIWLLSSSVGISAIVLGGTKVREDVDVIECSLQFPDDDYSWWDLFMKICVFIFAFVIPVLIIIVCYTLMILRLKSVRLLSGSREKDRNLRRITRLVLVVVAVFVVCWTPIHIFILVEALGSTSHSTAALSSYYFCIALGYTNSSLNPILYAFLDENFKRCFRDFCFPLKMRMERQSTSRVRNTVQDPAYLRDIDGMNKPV

| SMILES | Ki [1] | Ki [2] | further results |
| --- | --- | --- | --- |
| Cn1ccc2cc3c(cc21)CCN3C(=O)Nc1cccnc1 | 4.7 nM |  |  |
| C=C(C)[C@@H]1CCC(C)=C[C@H]1c1c(OC)cc(CCCCC)cc1OCCOCCOCCOCCOc1cc(CCCCC)cc(OC)c1[C@@H]1C=C(C)CC[C@H]1C(=C)C |  | 8100 nM |  |
| C=C(C)[C@@H]1CCC(C)=C[C@H]1c1c(OC)cc(CCCCC)cc1OCCCCOc1cc(CCCCC)cc(OC)c1[C@@H]1C=C(C)CC[C@H]1C(=C)C |  |  | Ki (Histamine H1 receptor): 600 nM |
| C=C(C)[C@H]1CCC(C)=C[C@@H]1c1c(O)cc(CCCCC)cc1OCCCCCCCCOc1cc(CCCCC)cc(O)c1[C@@H]1C=C(C)CC[C@H]1C(=C)C | 4500 nM | 1900 nM | Ki [3]: 1900 nM |
| C=C(C)[C@H]1CCC(C)=C[C@@H]1c1c(O)cc(CCCCC)cc1OCCCCCOc1cc(CCCCC)cc(O)c1[C@@H]1C=C(C)CC[C@H]1C(=C)C | 2100 nM | 6900 nM |  |
| C=C(C)[C@H]1CCC(C)=C[C@@H]1c1c(O)cc(CCCCC)cc1OCCOc1cc(CCCCC)cc(O)c1[C@@H]1C=C(C)CC[C@H]1C(=C)C | 1700 nM | 800 nM |  |
| C=C(C)[C@@H]1CCC(C)=C[C@H]1c1c(O)cc(CCCCC)cc1OCCCCCCCOc1cc(CCCCC)cc(O)c1[C@@H]1C=C(C)CC[C@H]1C(=C)C | 1800 nM |  | Ki (D(2) dopamine receptor): 600 nM |
| Cc1c(C(=O)c2cccc3ccccc23)c2cccc3c2n1[C@H](CN1CCOCC1)CO3 [WIN-552122] |  |  | EC50 [4]: 13100 nM |
| C=C(C)[C@H]1CCC(C)=C[C@@H]1c1c(O)cc(CCCCC)cc1OCCCCCCOc1cc(CCCCC)cc(O)c1[C@@H]1C=C(C)CC[C@H]1C(=C)C |  | 700 nM |  |
| C=C(C)[C@@H]1CCC(C)=C[C@H]1c1c(OC)cc(CCCCC)cc1OCCCCCCOc1cc(CCCCC)cc(OC)c1[C@@H]1C=C(C)CC[C@H]1C(=C)C | 8700 nM | 5500 nM |  |
| C=C(C)[C@@H]1CCC(C)=C[C@H]1c1c(OC)cc(CCCCC)cc1OCCCOc1cc(CCCCC)cc(OC)c1[C@@H]1C=C(C)CC[C@H]1C(=C)C |  | 3400 nM | Activity (Cannabinoid receptor 1 [5]): Active; Ki (Translocator protein): 2700 nM; EC50 (Cannabinoid receptor 1 [6]): 42200 nM |
| C=C(C)[C@@H]1CCC(C)=C[C@H]1c1c(OC)cc(CCCCC)cc1OCCCCCOc1cc(CCCCC)cc(OC)c1[C@@H]1C=C(C)CC[C@H]1C(=C)C |  |  | Activity (Cannabinoid receptor 1 [5]): Active; EC50 (Cannabinoid receptor 1 [6]): 40000 nM |
| C=C(C)[C@@H]1CCC(C)=C[C@H]1c1c(OC)cc(CCCCC)cc1OCCCCCCCCOc1cc(CCCCC)cc(OC)c1[C@@H]1C=C(C)CC[C@H]1C(=C)C | > 10000 nM | 2700 nM |  |
| C=C(C)[C@H]1CCC(C)=C[C@@H]1c1c(OC)cc(CCCCC)cc1OCCCCCCCOc1cc(CCCCC)cc(OC)c1[C@H]1C=C(C)CC[C@@H]1C(=C)C |  | 4700 nM |  |
| C=C(C)[C@H]1CCC(C)=C[C@@H]1c1c(O)cc(CCCCC)cc1OCCCCOc1cc(CCCCC)cc(O)c1[C@@H]1C=C(C)CC[C@H]1C(=C)C |  | 5500 nM |  |
| C=C(C)[C@@H]1CCC(C)=C[C@H]1c1c(O)cc(CCCCC)cc1OCCCCCCCCCCCCOc1cc(CCCCC)cc(O)c1[C@@H]1C=C(C)CC[C@H]1C(=C)C | 2400 nM |  | Ki [7]: 1700 nM; Ki (D(2) dopamine receptor): > 10000 nM |
| C=C(C)[C@@H]1CCC(C)=C[C@H]1c1c(O)cc(CCCCC)c2c1OCC2 | 3300 nM |  | Ki (D(3) dopamine receptor): 400 nM; Ki [3]: 1800 nM; Ki (D(4) dopamine receptor): 500 nM; Ki (D(2) dopamine receptor): 400 nM; Ki [8]: 5700 nM |
| C=C(C)[C@H]1CCC(C)=C[C@@H]1c1c(OC)cc(CCCCC)cc1OCCCCCCCCCCCCOc1cc(CCCCC)cc(OC)c1[C@H]1C=C(C)CC[C@@H]1C(=C)C | 6600 nM |  | Ki (Translocator protein): 900 nM |
| C=C(C)[C@@H]1CCC(C)=C[C@H]1c1c(O)cc(CCCCC)cc1O |  |  | Activity (Cannabinoid receptor 1 [9]): inactive |
